The source of these data is patent US9994509B2, “Inhibitors of viral replication, their process of preparation and their therapeutical uses” (HIVIH, priority 2013, dated 2018).

The test system of this assay is NL4-3 strain of HIV-1. Put plainly: HIV-1 replication assay: cyto-protection of MT4 cells infected with NL4-3 virus, CellTiter-Glo viability readout. The class given is cell-based. Particulars: Human immunodeficiency virus 1, NL43, 120 h; concentration leading to 50% of cyto-protection; MT4 cells infected with NL4-3 virus; 5 days incubation; CellTiter-Glo; read-out: EC50. The protocol: The antiviral activity, particularly against HIV, of compounds according to the invention is evaluated by the protocol described below.
Preparation of Virus stock of the NL4-3 strain of HIV-1 (Adachi et al, J Virol, 1986, 59(2):284-91).
The virus was prepared as described in Lopez et al (Lopez et al, Proc Natl Acad Sci USA., 2006, 103(40):14947-52, by transfecting 2×10^6 293 T cells (CRL-1573, ATCC) with following modifications: 6 μg of NL4-3 proviral DNA molecular clone were mixed with X-tremeGENE 9 DNA transfection reagent from Roche, and used according to manufacturer's instructions. Twenty four hours later, cells were washed and fresh medium added. Forty eight hours after transfection, cell supernatants were harvested, filtered through 0.45-μm-pore-size filters, quantified for HIV-1 p24 antigen by using an Innotest HIV antigen mAb assay (Ingen) according to manufacturer's instructions, and used in infection experiments.
Serial dilutions of compounds to be tested were prepared in complete RPMI medium from 10 mM DMSO stock solutions, and distributed in a volume of 20 μl in 96 well tissue-culture treated plates (Costar 3917), in order to get 0.5% DMSO final concentration in each well, after the addition of infected cells. Control wells contained also 0.5% DMSO final concentration but no compound.
MT4 cells (from the NIH AIDS Research and Reference Reagent Program) in RPMI complete medium were counted (10×10^6 cells per well in Falcon 353047 Multiwell™ 24 well) and infected for 2 hours at 37°, at a multiplicity of infection (moi) of 0.0001-0.00001. Cells were then centrifuged for 3 min at 3000 rpm, and washed two times in 1 ml PBS to remove viruses that have not entered the cells. Infected cells were resuspended in complete RPMI at 1.25×10^6 cells/ml, and 80 μl of infected cells were distributed in each well containing compounds to be tested or control wells. The plates were then incubated at 37° C. for 5 days.
Assay used to measure the inhibition of HIV replication by the compounds (according to Gregg S. Jones et al., Antimicrobial Agents and Chemotherapy, 2009, 53 (3): 1194-1203).
After 5 days of incubation, microplates were equilibrated to room temperature for 30 min and then 50 μl of CellTiter-Glo reagent (Promega Biosciences, Inc., Madison Wis., USA) were added to each well. Cell lysis was carried out at room temperature during 10 min and luminescence was read on a Fluoroskan (Thermo Scientific).
The EC50, or effective concentration 50, is the concentration of compound leading to 50% of cyto-protection in a CellTiter-Glo® viability assay based on MT4 cells infected with NL4-3 virus (table 1).
A general note: ATP-based viability assays read luminescence as a measure of living cells.

As a reminder, the EC50 is the concentration giving half of the maximal effect. In the case of `Cc1ccc(C2(C)CC2)c(-c2ccc3c(c2)CCCO3)c1C(OC(C)(C)C)C(=O)O` (stereo not shown) [Example 25, tert-butoxy-[2-chroman-6-yl-6-methyl-3-(1-methyl-cyclopropyl)-phenyl]-acetic acid], the EC50 was 200 nM.
The result for `O=C(O)C(OC1CC1)c1c(C(F)(F)F)ccc(C2CC2)c1-c1ccc2c(c1)CCCO2` (stereo not shown) [Example 27, (2-chroman-6-yl-3-cyclopropyl-6-trifluoromethyl-phenyl)-cyclopropoxy-acetic acid] reads 280 nM.
The result for `CCCOC(C(=O)O)c1c(C)ccc(C2CC2)c1-c1ccc2c(c1)CCCO2` (stereo not shown) [Example 28, (2-chroman-6-yl-3-cyclopropyl-6-methyl-phenyl)-propoxy-acetic acid] reads 500 nM.
On to `Cc1ccc(C2CC2)c(-c2ccc3c(c2)CCCO3)c1C(OCC1CC1)C(=O)O` (stereo not shown) [Example 29, (2-chroman-6-yl-3-cyclopropyl-6-methyl-phenyl)-cyclopropyl methoxy-acetic acid], for which the EC50 was 500 nM.
Regarding `Cc1ccc(C2CC2)c(-c2ccc3c(c2)CCCO3)c1C(OCC(F)(F)F)C(=O)O` (stereo not shown) [Example 30, (2-chroman-6-yl-3-cyclopropyl-6-methyl-phenyl)-(2,2,2-trifluoro-ethoxy)-acetic acid], the EC50 turned out to be 860 nM.
In the case of `CCCc1ccc(C)c(C(OC(C)C)C(=O)O)c1-c1ccc2c(c1)CCCO2` (stereo not shown) [Example 31], the EC50 amounted to 1000 nM.
The result for `Cc1ccc(C2CC2)c(-c2ccc3c(c2C)CCCO3)c1C(OC1CC1)C(=O)O` (stereo not shown) [Example 32, cyclopropoxy-[3-cyclopropyl-6-methyl-2-(5-methyl-chroman-6-yl)-phenyl]-acetic acid] reads 32 nM.
The result for `Cc1ccc(C2CC2)c(-c2ccc3c(c2)CCCO3)c1C(OC1CCC1)C(=O)O` (stereo not shown) [Example 33, (2-chroman-6-yl-3-cyclopropyl-6-methyl-phenyl)-cyclobutoxy-acetic acid] reads 450 nM.
Then `Cc1ccc(C2CC2)c(-c2ccc3c(c2)CCCO3)c1C(OCC(F)F)C(=O)O` (stereo not shown) [Example 34, (2-chroman-6-yl-3-cyclopropyl-6-methyl-phenyl)-(2,2-difluoro-ethoxy)-acetic acid], with 440 nM.
As for `Cc1ccc(C2CC2)c(-c2ccc3c(c2)CCCO3)c1C(OCCF)C(=O)O` (stereo not shown) [Example 35, (2-chroman-6-yl-3-cyclopropyl-6-methyl-phenyl)-(2-fluoro-ethoxy)-acetic acid], the EC50 amounted to 830 nM.
The result for `Cc1ccc(C2CC2)c(-c2ccc3c(c2)CCCO3)c1C(OC(C)C)C(=O)O` (stereo not shown) [Example 36, (2-chroman-6-yl-3-cyclopropyl-6-methyl-phenyl)-isopropoxy-acetic acid] reads 100 nM; that for `Cc1ccc(C2CC2)c(-c2cc(F)c3c(c2C)CCCO3)c1C(OC1CC1)C(=O)O` (stereo not shown) [Example 37, cyclopropoxy-[3-cyclopropyl-2-(8-fluoro-5-methyl-chroman-6-yl)-6-methyl-phenyl]-acetic acid], 24 nM; that for `Cc1ccc(C2CC2)c(-c2ccc3c(c2)CCCO3)c1C(OC1(C)CC1)C(=O)O` (stereo not shown) [Example 39, (2-chroman-6-yl-3-cyclopropyl-6-methyl-phenyl)-(1-methyl-cyclopropoxy)-acetic acid], 24 nM.
Then `CC(C)(C)OC(C(=O)O)c1c(-c2ccc3c(c2)CCCO3)c(C2CC2)cc2ncccc12` (stereo not shown) [Example 42, tert-butoxy-(6-chroman-6-yl-7-cyclopropyl-quinolin-5-yl)-acetic acid], with 190 nM; and `Cc1ccc(C2CCC2)c(-c2ccc3c(c2)CCCO3)c1C(OC(C)(C)C)C(=O)O` (stereo not shown) [Example 43, tert-butoxy-(2-chroman-6-yl-3-cyclobutyl-6-methyl-phenyl)-acetic acid], with 94 nM; and `Cc1ccc(C2CC2)c(-c2ccc3c(c2)CCCO3)c1C(CC1CC1)C(=O)O` (stereo not shown) [Example 45, 3-cyclopropyl-2-[3-cyclopropyl-2-(3,4-dihydro-2H-1-benzopyran-6-yl)-6-methylphenyl]propanoic acid], with 290 nM.
Consider `Cc1ccc(C2CC2)c(-c2ccc3c(c2)CCCO3)c1C(CC(C)C)C(=O)O` (stereo not shown) [Example 46, 2-[3-cyclopropyl-2-(3,4-dihydro-2H-1-benzopyran-6-yl)-6-methylphenyl]-4-methylpentanoic acid], for which the EC50 was found to be 650 nM.
For the compound `Cc1ccc(C2CC2)c(-c2ccc3c(c2)CCCO3)c1C(OC1CC1(F)F)C(=O)O` (stereo not shown) [Example 47, (2-chroman-6-yl-3-cyclopropyl-6-methyl-phenyl)-(2,2-difluoro-cyclopropoxy)-acetic acid], the EC50 amounted to 450 nM.
In the case of `COc1cc(C)c(C(OC2CC2)C(=O)O)c(-c2ccc3c(c2)CCCO3)c1C1CC1` (stereo not shown) [Example 56, (2-chroman-6-yl-3-cyclopropyl-4-methoxy-6-methyl-phenyl)-cyclopropoxy-acetic acid], the EC50 is 500 nM.
The result for `CCc1cc(C2CC2)c(-c2ccc3c(c2)CCCO3)c(C(OC2CC2)C(=O)O)c1C` (stereo not shown) [Example 57, 2-(2-chroman-6-yl-3-cyclopropyl-5-ethyl-6-methyl-phenyl)-2-(cyclopropoxy)acetic acid] reads 580 nM.
Then `Cc1ccc(C)c(C(OC(C)(C)C)C(=O)O)c1-c1ccc2c(c1)CCCO2` (stereo not shown) [Example 62, 2-(tert-butoxy)-2-[2-(3,4-dihydro-2H-1-benzopyran-6-yl)-3,6-dimethylphenyl]acetic acid, reference compound], with 1600 nM.
The result for `CC(C)(C)OC(C(=O)O)c1c(C(F)(F)F)ccc(OCc2ccccc2)c1-c1ccc2c(c1)CCCO2` (stereo not shown) [Example 63, 2-[3-(benzyloxy)-2-(3,4-dihydro-2H-1-benzopyran-6-yl)-6-(trifluoromethyl)phenyl]-2-(tert-butoxy)acetic acid, reference compound] reads 3200 nM.
